Results as given in patent publication US4304726A, “Process for the preparation of cholesterol derivatives” (The Green Cross Corporation, priority 1979, dated 1981).

Columns and labels:
[1] = Japanese Kokai No. 104,735/1978, cited from earlier work; for immunosuppressive effect: particularly cell-mediated
PHA reaction = experiment: PHA reaction, 50% inhibitory concentration (immunosuppressive action in vitro); type: cell-based; conditions: ester form as emulsion with polyoxyethylene-polyoxypropylene copolymer, salt form as aqueous solution; for IC50: read-out: Concentration for 50% inhibition
Experimental: In accordance with the PHA method by Cooparband et al. [The Journal of Immunology, 109, (1), 154 (1972)], the compounds of this invention were tested for the 50% inhibitory concentration in the PHA reaction. Also, the effect of IRA (Immunoregulatory α-globulin) obtained according to the method of Occhino et al. [The Journal of Immunology, 110, (3), 685 (1973)] was shown as comparative test data. Among these compounds, those of the ester form were used in emulsion employing a copolymer of polyoxyethylene-polyoxypropylene having molecular weight of 8350 as a surfactant, and those of the salt form were used as aqueous solutions.

[2] = test system: carrageenin edema of hind footpad; experiment: Carrageenin hind footpad edema in rats (anti-inflammatory action); type: in vivo; conditions: 50 mg/kg intraperitoneally 1 h before carrageenin, 4 hours after inoculation
Experimental: Using rats, each of derivatives of 7-hydroxycholesterol and of 7-ketocholesterol shown in Table 2 was administered intraperitoneally to 5 rats of each group in a dose of 50 mg/kg (physiologically isotonic aqueous solution with a concentration of 2.0% by weight), and one hour after the administration, each 0.05 ml of 1% aqueous carrageenin solution as an inflammation-causing substance was subcutaneously inoculated at the hind footpad.
After 4 hours from the inoculation of carrageenin, the size of edema caused on the footpad was measured by means of a volume differential meter to compare with that of the control group which was given to the physiological sodium chloride aqueous solution.
The ester samples administered were in the form of emulsion employing a phospholipid as a surfactant, and the salt samples were in the form of physiologically isotonic solution.

rats = experiment: Acute toxicity test in rats; type: in vivo; conditions: intraperitoneal, 250, 500, 750 or 1000 mg/kg, 5-days' observation
Experimental: Acute toxicity tests were performed using rats, each group consisting of 5 rats each weighing approximately 200 g, on 7-ketocholesteryl hydrogen succinate, 7-ketocholesteryl hydrogen phthalate, sodium 7-ketocholesteryl succinate, ammonium 7-ketocholesteryl succinate, 7-hydroxycholesteryl hydrogen succinate, 7β-hydroxycholesteryl hydrogen phthalate, sodium 7-hydroxycholesteryl succinate, and sodium 7β-hydroxycholesteryl phthalate. Each of the compounds of salt type was made into a physiologically isotonic aqueous solution, and each of the compounds of ester type was dispersed with a surfactant and by ultrasonic wave treatment to give a uniform dispersion. Thereafter, each of them was administered intraperitoneally in an amount of 250 mg/kg, 500 mg/kg, 750 mg/kg, or 1000 mg/kg. After 5-days' observation, no rat died.

Row | Compound | anti-inflammatory effect [1] | immunosuppressive effect [1] | Concentration for 50% inhibition (PHA reaction) | Swelling rate of edema ([2]; control 82, 50 mg/kg) | death of rats (acute toxicity) (rats) | IC50 (PHA reaction) | Swelling rate of edema ([2]; control 82)
1 | CC(C)CCC[C@@H](C)[C@H]1CC[C@H]2[C@@H]3C(O)C=C4C[C@@H](O)CC[C@]4(C)[C@H]3CC[C@]12C (stereo partly shown) [7-hydroxycholesterol] | effective | effective as immunosuppressive agent | – | – | – | – | –
2 | CC(C)CCC[C@@H](C)[C@H]1CC[C@H]2[C@@H]3[C@@H](O)C=C4C[C@@H](OC(=O)c5ccccc5C(=O)O)CC[C@]4(C)[C@H]3CC[C@]12C [Sodium 7β-hydroxycholesteryl phthalate] | – | – | 4 µg/mL | 31% | no rat died | – | –
3 | CC(C)CCC[C@@H](C)[C@H]1CC[C@H]2[C@@H]3[C@@H](O)C=C4C[C@@H](OC(=O)c5ccccc5C(=O)O)CC[C@]4(C)[C@H]3CC[C@]12C [7β-hydroxycholesteryl hydrogen phthalate] | – | – | – | 30% | no rat died | 3 µg/mL | –
4 | CC(C)CCC[C@@H](C)[C@H]1CC[C@H]2[C@@H]3C(=O)C=C4C[C@@H](O)CC[C@]4(C)[C@H]3CC[C@]12C [7-ketocholesterol] | effective | effective as immunosuppressive agent | – | – | – | – | –
5 | CC(C)CCC[C@@H](C)[C@H]1CC[C@H]2[C@@H]3C(=O)C=C4C[C@@H](OC(=O)CCC(=O)O)CC[C@]4(C)[C@H]3CC[C@]12C [7-ketocholesteryl hydrogen succinate] | – | – | – | – | no rat died | 4 µg/mL | 30%
6 | CC(C)CCC[C@@H](C)[C@H]1CC[C@H]2[C@@H]3C(=O)C=C4C[C@@H](OC(=O)c5ccccc5C(=O)O)CC[C@]4(C)[C@H]3CC[C@]12C [7-ketocholesteryl hydrogen phthalate] | – | – | – | – | no rat died | 4 µg/mL | 28%
7 | CC(C)CCC[C@@H](C)[C@H]1CC[C@H]2[C@@H]3C(O)C=C4C[C@@H](OC(=O)CCC(=O)O)CC[C@]4(C)[C@H]3CC[C@]12C (stereo partly shown) [7-hydroxycholesteryl hydrogen succinate] | – | – | – | 29% | no rat died | 3 µg/mL | –
8 | CC(C)CCC[C@@H](C)[C@H]1CC[C@H]2[C@@H]3C(O)C=C4C[C@@H](OC(=O)CCC(=O)O)CC[C@]4(C)[C@H]3CC[C@]12C (stereo partly shown) [Sodium 7-hydroxycholesteryl succinate, sodium 7-hydroxycholesteryl succinate] | – | – | 3 µg/mL | 28% | no rat died | – | –
